Assay results taken from publication PMC3961306, “Comparison of the Cancer Gene Targeting and Biochemical Selectivities of All Targeted Kinase Inhibitors Approved for Clinical Use” (PLoS ONE, 2014).

Tests used:
Assay in all cases: Kinase profiling in a biochemical assay panel (mobility shift assays and ELISA), %-inhibition at 1 μM; selectivity entropy
[1] = molecular target: panel of more than 300 wild-type and mutant kinases (313 kinase panel) (Homo sapiens, UniProt O14578)
[2] = molecular target: panel of more than 300 wild-type and mutant kinases (313 kinase panel) (Homo sapiens, UniProt P08581, Y1235D)
Chain of panel of more than 300 wild-type and mutant kinases (313 kinase panel) (Homo sapiens, UniProt P08581, Y1235D) (P08581 25-1390 Y1235D): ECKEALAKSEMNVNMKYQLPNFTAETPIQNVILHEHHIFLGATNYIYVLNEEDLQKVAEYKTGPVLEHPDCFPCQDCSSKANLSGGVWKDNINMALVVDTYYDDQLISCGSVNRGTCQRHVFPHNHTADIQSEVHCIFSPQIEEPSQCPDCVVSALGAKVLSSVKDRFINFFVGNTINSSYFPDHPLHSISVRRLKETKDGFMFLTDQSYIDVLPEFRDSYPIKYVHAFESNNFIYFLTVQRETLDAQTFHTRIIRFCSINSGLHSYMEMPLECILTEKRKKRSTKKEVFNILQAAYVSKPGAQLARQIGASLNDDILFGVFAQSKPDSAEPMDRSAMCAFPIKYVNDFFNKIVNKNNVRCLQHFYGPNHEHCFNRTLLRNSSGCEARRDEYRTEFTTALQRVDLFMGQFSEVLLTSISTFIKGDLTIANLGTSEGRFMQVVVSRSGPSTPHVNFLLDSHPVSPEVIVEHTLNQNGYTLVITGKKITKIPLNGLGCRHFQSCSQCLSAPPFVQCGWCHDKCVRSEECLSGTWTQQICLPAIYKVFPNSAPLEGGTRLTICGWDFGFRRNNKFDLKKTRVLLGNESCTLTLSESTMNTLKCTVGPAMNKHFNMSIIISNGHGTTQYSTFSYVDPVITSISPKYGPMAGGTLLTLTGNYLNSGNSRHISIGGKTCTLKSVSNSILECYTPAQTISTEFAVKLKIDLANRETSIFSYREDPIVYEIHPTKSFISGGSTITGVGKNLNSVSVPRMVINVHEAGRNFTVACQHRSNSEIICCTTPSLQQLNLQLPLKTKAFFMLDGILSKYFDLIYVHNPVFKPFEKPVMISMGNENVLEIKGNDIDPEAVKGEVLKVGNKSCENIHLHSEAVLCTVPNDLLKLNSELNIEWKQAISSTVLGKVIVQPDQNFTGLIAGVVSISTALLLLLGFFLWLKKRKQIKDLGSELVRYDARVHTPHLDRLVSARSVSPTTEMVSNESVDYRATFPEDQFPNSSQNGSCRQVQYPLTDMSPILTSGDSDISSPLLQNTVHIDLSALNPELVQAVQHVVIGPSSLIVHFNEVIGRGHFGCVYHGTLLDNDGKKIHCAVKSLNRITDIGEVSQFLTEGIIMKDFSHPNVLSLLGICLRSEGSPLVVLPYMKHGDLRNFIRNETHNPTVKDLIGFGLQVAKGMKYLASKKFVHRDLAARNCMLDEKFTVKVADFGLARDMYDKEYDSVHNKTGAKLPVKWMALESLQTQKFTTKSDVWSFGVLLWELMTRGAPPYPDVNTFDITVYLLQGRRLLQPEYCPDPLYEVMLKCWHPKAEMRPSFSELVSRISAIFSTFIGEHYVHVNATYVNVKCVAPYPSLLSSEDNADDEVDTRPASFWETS

[3] = molecular target: panel of more than 300 wild-type and mutant kinases (313 kinase panel) (Homo sapiens, UniProt P22455, N535K); details: kinase FGFR4(N535K); compound at 1 μM
Chain of panel of more than 300 wild-type and mutant kinases (313 kinase panel) (Homo sapiens, UniProt P22455, N535K) (P22455 22-802 N535K): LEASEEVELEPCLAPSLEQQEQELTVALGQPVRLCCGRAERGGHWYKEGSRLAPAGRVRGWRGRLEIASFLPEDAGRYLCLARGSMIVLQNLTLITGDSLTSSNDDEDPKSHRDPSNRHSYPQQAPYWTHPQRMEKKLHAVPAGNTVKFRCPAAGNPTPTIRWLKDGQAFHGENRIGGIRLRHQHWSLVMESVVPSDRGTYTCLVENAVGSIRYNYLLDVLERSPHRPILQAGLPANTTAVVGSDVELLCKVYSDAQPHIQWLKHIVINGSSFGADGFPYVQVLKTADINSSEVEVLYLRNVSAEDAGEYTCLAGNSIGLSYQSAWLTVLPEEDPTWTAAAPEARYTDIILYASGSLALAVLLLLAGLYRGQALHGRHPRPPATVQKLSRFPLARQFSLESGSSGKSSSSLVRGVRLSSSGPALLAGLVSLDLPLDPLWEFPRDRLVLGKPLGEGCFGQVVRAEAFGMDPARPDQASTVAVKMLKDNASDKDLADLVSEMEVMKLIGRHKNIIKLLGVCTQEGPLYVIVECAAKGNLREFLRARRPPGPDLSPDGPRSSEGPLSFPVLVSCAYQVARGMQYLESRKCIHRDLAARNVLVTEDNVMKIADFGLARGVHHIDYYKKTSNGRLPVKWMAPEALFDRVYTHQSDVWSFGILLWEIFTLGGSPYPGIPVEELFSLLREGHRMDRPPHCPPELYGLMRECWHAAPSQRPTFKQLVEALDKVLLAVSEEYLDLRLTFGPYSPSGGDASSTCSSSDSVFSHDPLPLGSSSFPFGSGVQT

[4] = molecular target: panel of more than 300 wild-type and mutant kinases (313 kinase panel) (Homo sapiens, UniProt P24723)
Chain of panel of more than 300 wild-type and mutant kinases (313 kinase panel) (Homo sapiens, UniProt P24723) (P24723 whole entry, change not shown): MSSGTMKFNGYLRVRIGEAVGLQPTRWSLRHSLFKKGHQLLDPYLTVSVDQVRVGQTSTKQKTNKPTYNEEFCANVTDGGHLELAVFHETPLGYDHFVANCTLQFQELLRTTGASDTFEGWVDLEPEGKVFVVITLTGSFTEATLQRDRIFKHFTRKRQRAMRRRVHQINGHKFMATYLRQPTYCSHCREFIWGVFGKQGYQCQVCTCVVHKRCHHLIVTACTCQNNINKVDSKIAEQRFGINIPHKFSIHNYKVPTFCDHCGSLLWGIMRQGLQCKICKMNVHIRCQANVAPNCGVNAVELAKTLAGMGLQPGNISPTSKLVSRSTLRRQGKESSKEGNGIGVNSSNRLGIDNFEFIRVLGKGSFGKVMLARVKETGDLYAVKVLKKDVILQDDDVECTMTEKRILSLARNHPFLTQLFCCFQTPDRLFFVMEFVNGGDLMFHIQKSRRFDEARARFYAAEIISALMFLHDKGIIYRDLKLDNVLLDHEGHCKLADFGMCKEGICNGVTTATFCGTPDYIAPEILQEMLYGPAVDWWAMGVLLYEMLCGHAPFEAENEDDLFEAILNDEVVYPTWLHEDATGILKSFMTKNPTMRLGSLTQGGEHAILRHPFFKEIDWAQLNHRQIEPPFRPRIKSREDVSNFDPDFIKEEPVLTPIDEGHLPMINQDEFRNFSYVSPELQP

[5] = molecular target: panel of more than 300 wild-type and mutant kinases (313 kinase panel) (Homo sapiens, UniProt P53350)
[6] = molecular target: T1, panel of more than 300 wild-type and mutant kinases (313 kinase panel) (Homo sapiens, UniProt Q9UQB9)
T1 sequence (Q9UQB9 1-309): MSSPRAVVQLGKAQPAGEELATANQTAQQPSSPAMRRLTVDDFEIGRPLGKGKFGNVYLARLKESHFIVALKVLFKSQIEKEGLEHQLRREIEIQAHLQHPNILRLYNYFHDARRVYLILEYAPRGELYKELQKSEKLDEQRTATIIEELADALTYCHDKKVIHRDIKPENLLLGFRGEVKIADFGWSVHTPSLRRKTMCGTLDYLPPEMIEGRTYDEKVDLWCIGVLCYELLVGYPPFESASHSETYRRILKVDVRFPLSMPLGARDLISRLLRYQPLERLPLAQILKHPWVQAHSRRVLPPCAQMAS

[7] = molecular target: panel of more than 300 wild-type and mutant kinases (313 kinase panel) (Homo sapiens, UniProt Q9Y5S2)
[8] = molecular target: T2, panel of more than 300 wild-type and mutant kinases (313 kinase panel) (Homo sapiens, UniProt P33981)
T2 sequence (P33981 1-857): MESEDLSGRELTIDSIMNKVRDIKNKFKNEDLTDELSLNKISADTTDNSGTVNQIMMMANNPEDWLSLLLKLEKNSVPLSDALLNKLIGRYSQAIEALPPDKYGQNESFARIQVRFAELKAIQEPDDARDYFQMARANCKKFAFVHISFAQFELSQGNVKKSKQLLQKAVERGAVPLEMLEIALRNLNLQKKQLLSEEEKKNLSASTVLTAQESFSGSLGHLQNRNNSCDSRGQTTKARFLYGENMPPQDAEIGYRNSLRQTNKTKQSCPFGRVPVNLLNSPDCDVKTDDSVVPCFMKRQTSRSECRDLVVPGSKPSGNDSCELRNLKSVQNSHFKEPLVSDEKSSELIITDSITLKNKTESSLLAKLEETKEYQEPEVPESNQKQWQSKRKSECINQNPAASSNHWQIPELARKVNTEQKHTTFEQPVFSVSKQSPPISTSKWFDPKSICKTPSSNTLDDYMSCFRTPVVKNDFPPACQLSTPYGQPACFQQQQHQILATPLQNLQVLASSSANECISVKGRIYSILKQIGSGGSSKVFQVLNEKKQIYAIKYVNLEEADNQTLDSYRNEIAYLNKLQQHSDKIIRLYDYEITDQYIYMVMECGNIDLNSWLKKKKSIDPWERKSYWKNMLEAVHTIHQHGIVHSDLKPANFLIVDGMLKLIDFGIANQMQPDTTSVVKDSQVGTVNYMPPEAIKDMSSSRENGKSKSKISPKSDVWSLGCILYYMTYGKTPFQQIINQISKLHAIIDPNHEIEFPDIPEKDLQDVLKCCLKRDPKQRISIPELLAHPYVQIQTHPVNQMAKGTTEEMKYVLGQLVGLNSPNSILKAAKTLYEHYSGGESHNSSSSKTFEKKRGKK

[9] = molecular target: T3, panel of more than 300 wild-type and mutant kinases (313 kinase panel) (Homo sapiens, UniProt P51813)
T3 sequence (P51813 1-675): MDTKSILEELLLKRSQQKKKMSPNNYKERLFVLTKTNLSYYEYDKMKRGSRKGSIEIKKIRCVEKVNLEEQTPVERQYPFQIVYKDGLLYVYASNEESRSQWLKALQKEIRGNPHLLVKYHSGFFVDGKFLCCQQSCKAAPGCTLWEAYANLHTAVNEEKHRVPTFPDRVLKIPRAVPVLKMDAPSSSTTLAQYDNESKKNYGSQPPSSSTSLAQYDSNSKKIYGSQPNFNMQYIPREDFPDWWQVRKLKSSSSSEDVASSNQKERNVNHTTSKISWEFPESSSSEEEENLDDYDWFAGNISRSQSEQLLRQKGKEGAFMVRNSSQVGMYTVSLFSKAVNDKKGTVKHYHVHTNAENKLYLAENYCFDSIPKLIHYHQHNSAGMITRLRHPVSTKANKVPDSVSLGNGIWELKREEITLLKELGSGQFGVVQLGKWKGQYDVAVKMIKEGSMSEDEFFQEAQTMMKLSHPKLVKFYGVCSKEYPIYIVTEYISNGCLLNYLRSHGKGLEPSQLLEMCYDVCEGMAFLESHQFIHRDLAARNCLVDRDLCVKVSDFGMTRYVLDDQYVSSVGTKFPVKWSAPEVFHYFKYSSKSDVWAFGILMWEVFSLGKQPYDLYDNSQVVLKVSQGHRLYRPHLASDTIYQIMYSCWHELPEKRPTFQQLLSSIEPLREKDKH

[10] = molecular target: panel of more than 300 wild-type and mutant kinases (313 kinase panel) (Homo sapiens, UniProt Q13177)
[11] = kinase MET(Y1235D), compound at 1 μM

Chain of panel of more than 300 wild-type and mutant kinases (313 kinase panel) (Homo sapiens, UniProt O14578) (O14578 whole entry, stated change not applied): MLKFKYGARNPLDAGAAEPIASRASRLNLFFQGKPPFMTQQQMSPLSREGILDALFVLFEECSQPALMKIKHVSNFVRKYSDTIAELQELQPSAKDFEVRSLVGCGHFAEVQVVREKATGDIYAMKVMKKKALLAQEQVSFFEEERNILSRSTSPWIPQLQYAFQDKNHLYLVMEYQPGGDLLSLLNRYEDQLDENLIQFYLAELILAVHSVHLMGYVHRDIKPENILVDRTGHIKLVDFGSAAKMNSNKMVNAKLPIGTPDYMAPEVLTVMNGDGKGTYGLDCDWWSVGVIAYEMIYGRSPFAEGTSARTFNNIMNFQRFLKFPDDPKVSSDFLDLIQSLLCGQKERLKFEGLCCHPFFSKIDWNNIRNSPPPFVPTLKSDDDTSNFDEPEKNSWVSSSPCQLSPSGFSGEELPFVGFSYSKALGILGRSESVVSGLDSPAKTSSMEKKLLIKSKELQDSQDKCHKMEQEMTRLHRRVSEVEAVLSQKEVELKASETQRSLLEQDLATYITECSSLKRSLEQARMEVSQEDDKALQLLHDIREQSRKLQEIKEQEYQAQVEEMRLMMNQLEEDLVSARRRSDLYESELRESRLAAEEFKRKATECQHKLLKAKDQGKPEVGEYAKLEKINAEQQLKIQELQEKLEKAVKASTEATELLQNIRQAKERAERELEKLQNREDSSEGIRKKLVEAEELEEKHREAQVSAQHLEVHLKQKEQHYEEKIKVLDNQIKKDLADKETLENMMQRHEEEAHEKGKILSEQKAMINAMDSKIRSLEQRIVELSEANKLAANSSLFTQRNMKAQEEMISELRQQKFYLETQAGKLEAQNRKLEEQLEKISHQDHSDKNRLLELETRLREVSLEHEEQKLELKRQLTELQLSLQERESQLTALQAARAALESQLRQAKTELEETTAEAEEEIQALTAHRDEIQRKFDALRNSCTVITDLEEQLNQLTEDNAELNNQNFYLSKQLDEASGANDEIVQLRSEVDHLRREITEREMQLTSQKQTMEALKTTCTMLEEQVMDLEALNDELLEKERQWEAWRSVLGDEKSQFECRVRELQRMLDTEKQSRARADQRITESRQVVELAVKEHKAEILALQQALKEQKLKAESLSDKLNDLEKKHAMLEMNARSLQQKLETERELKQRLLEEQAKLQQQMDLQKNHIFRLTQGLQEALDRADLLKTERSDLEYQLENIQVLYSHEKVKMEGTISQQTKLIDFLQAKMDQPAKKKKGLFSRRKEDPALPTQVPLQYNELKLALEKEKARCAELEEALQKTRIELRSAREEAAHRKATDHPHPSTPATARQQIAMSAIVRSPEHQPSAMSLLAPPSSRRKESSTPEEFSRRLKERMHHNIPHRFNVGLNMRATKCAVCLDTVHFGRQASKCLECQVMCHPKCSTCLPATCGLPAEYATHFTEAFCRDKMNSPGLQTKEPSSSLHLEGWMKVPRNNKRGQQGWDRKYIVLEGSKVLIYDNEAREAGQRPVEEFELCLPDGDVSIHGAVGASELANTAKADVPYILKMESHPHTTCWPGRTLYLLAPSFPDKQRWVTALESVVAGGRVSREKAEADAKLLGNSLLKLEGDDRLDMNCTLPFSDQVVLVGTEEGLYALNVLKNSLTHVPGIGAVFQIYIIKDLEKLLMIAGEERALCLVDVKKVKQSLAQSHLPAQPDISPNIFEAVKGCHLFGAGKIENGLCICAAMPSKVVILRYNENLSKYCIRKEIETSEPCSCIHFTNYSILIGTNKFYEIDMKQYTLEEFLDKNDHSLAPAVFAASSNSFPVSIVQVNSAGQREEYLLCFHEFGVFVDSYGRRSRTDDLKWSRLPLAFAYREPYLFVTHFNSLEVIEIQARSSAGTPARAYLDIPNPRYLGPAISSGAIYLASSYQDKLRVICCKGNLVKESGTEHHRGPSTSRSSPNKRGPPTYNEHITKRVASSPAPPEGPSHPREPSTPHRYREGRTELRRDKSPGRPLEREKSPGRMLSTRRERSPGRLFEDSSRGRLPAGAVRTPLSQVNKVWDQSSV

SMILES	%-inhibition of CRIK ([1]; kinase CRIK, compound at 1 μM)	%-inhibition of MET(Y1235D) [2, 11]	%-inhibition of FGFR4(N535K) [3]	%-inhibition of PKCη ([4]; kinase PKCη, 1 μM)	%-inhibition of PLK1 ([5]; kinase PLK1, 1 μM)	%-inhibition, AurC ([6]; 1 µM)	%-inhibition of MRCKβ ([7]; kinase MRCKβ, 1 μM)	%-inhibition of TTK ([8]; kinase TTK, compound at 1 μM)	%-inhibition, BMX ([9]; kinase BMX, 1 μM compound)	%-inhibition of PAK2 ([10]; kinase PAK2, 1 μM)	%-inhibition, AurC ([6]; kinase AurC, 1 μM compound)	%-inhibition of CRIK ([1]; 1 µM)	%-inhibition of MET(Y1235D) ([2]; 1 µM)	%-inhibition of PKCη ([4]; 1 µM)	%-inhibition of TTK ([8]; 1 µM)	%-inhibition, BMX ([9]; 1 µM)	%-inhibition of PLK1 ([5]; 1 µM)	%-inhibition of PAK2 ([10]; 1 µM)	%-inhibition of MRCKβ ([7]; 1 µM)
COc1cc(Nc2c(C#N)cnc3cc(OCCCN4CCN(C)CC4)c(OC)cc23)c(Cl)cc1Cl [bosutinib]	73%	14%	30%	1.14%	5%	-4%	66%	–	–	–	–	–	–	–	–	–	–	–	–
COc1cc2nccc(Oc3ccc(NC(=O)C4(C(=O)Nc5ccc(F)cc5)CC4)cc3)c2cc1OC [cabozantinib]	-10%	–	39%	8.55%	-2%	–	-3%	2.75%	53%	-5.44%	86%	–	–	–	–	–	–	–	–
C[C@@H](Oc1cc(-c2cnn(C3CCNCC3)c2)cnc1N)c1c(Cl)ccc(F)c1Cl [crizotinib]	-12%	–	6.5%	-8%	-3%	–	-2%	-9%	–	5%	87%	–	–	–	–	–	–	–	–
CC(C)(C)c1nc(-c2cccc(NS(=O)(=O)c3c(F)cccc3F)c2F)c(-c2ccnc(N)n2)s1 [dabrafenib]	-2.74%	25%	8%	9%	-9%	–	-2.85%	-22%	55%	–	23%	–	–	–	–	–	–	–	–
Cc1nc(Nc2ncc(C(=O)Nc3c(C)cccc3Cl)s2)cc(N2CCN(CCO)CC2)n1 [dasatinib]	10%	–	–	3%	–	–	–	–	–	0.254%	–	–	–	–	–	–	–	–	–
C#Cc1cccc(Nc2ncnc3cc(OCCOC)c(OCCOC)cc23)c1 [erlotinib]	–	–	–	–	–	24%	–	–	–	–	–	21%	22%	6.34%	6.42%	17%	-10%	5%	-4%
O=S(=O)(c1cccc2cnccc12)N1CCCNCC1 [fasudil]	7%	-2.65%	0.156%	35%	-8.49%	–	–	-11%	-4%	-16%	-0.164%	–	–	–	–	–	–	–	–
CS(=O)(=O)CCNCc1ccc(-c2ccc3ncnc(Nc4ccc(OCc5cccc(F)c5)c(Cl)c4)c3c2)o1 [lapatinib]	7%	2%	–	2.46%	–	3.4%	-5%	0.257%	9%	7%	–	–	–	–	–	–	-2.71%	–	–
Cc1cn(-c2cc(NC(=O)c3ccc(C)c(Nc4nccc(-c5cccnc5)n4)c3)cc(C(F)(F)F)c2)cn1 [nilotinib]	-16%	-4.56%	–	5.43%	-2.41%	–	-10%	-8%	–	–	5%	–	–	–	–	–	–	-40%	–
Cc1ccc(Nc2nccc(N(C)c3ccc4c(C)n(C)nc4c3)n2)cc1S(N)(=O)=O [pazopanib]	-2%	–	–	-1.67%	1.15%	–	1.15%	31%	24%	3.51%	58%	–	–	–	–	–	–	–	–
Cc1ccc(C(=O)Nc2ccc(CN3CCN(C)CC3)c(C(F)(F)F)c2)cc1C#Cc1cnc2cccnn12 [ponatinib]	61%	–	–	5.45%	-6%	–	1.18%	–	–	–	19%	–	–	–	–	–	–	–	–
N#CC[C@H](C1CCCC1)n1cc(-c2ncnc3[nH]ccc23)cn1 [ruxolitinib]	8%	–	4.48%	-1.36%	25%	–	20%	2%	6.6%	3.37%	–	–	-0.936%	–	–	–	–	–	–
CCN(CC)CCNC(=O)c1c(C)[nH]c(/C=C2\C(=O)Nc3ccc(F)cc32)c1C [sunitinib]	–	–	–	–	–	–	–	–	–	–	82%	–	–	–	–	–	–	–	–
COc1cc2c(Nc3ccc(Br)cc3F)ncnc2cc1OCC1CCN(C)CC1 [vandetanib]	-2.19%	–	81%	-9%	-3.6%	–	-16%	3%	18%	-2%	–	–	–	–	–	–	–	–	–
